No end group written: not given here. *: point of attachment. Biotin = O=C1N[C@H]2[C@H](CS[C@H]2CCCCC(=O)*)N1
Columns and labels:
ACLY binding to PIP2 = experiment: Phospho-ACLY bound to PIP2 (PIP2 immunoprecipitation and western blotting) in transfected HEK293T cells; format: cell-based, human; details: ACLY-HA with active SRC kinase, 2 μM, 15 hours
PI/PIP/PIP2 = experiment: Lipidomic analysis of PI, PIP and PIP2 in HL-60 cells; format: cell-based; details: 16 hours, 10% FBS in RPMI
Method: Phosphoinositides from HL60 cells treated with PI3K and Lyn inhibitors were compared with those from control cells (0.1% DMSO in culture medium). HL60 cells were treated with PI3K inhibitors LY294002, BKM120 or the Lyn inhibitor Bafetinib for 16 hours followed by TCA precipitation and freezing at −80° C. TCA precipitates were spiked with 20 ng of two internal standards (PIP 37:4; PIP2 37:4) and subjected to lipid extraction as described below and analyzed via LC/MS/MS. TMS-diazomethane derivatized phospholipids including phosphatidyl inositol (PI), phosphatidylinositol phosphate (PIP) and phosphatidylinositol bisphosphate (PIP2) values were measured using UPLC/MS/MS MRM Mass Spectrometry. […] Phosphatidylinositol trisphosphate (PIP3) was also measured but levels were too low in these cells to be analyzed. The endogenous PIP3 is several orders of magnitude less abundant than PIP2 in cells. It is well established that the basal PIP3 level is often undetectable in cells due to its low quantity and short halflife. […]
UPLC/MS: Dried, methylated cell extracts were suspended in 100 μl 100% methanol (LC-MS Optima grade, Fisher) prior to chromatographic separation and MS/MS. […] The effluent was monitored by a Waters XEVO TQ-S MS/MS in multiple reaction monitoring (MRM) in positive ion mode. […]

Acetyl-CoA = Acetyl-CoA measurement in HL-60 cells; format: cell-based; details: 16 hours
Method: HL-60 cells were cultured as above, treated with Bafetinib (500 nM), PI3K inhibitors (1 μM) for 16 hours. After treatment, cells were washed with medium and harvested for acetyl-CoA extraction from 5×10^6 cells per condition in triplicate, acetyl-CoA levels were measured using Pico-Probe Acetyl-CoA Fluorometric Assay kit (BioVision, Milpitas, Calif.) following the manufacturer's instructions.

[1] = test system: Histone H3 acetylation (H3K9ac); experiment: Histone H3 (H3K9) acetylation by Western blot in HL-60 cells; format: cell-based; details: 16 hours, 10% FBS in RPMI
Method: Therefore, to evaluate the link between PI3K/Lyn and ACLY-mediated pathways in AML, HL-60 AML cell line were also used, in addition to primary patient-derived AML cells. HL-60 cell line was from American Type Culture Collection (ATCC). It was decided to use this particular HL-60 cell line for consistency herein since HL-60 cells express the active NRAS oncoprotein, similarly like the patient-derived AML cells (FIG. 7 and FIG. 8). HL-60 AML cell line was grown in RPMI 1640 medium supplemented with 10% fetal bovine serum, 2 mM 1-glutamine and 1% penicillin-streptomycin and maintained at 37° C. and 5% CO2. Cells were treated with the Lyn inhibitor (100 nM-1000 nM Bafetinib) or PI3K inhibitors (500 nM-2.5 μM LY294002 or 100 nM-2.0 μM BKM120) or vehicle (0.1% DMSO) in the presence of 10% FBS in RPMI media for 16 hours for Acetyl CoA measurement, phospholipid and histone acetylation analysis.
HL-60 cell line was seeded at a concentration of 1×10^6/ml in 10 ml media onto 40 ml culture-flask and cultured for 16 hours in the presence of indicated concentration of LYN or PI3K inhibitors or DMSO (0.1% dimethyl sulfoxide). Cells were harvested and lysed in 1 ml of ice-cold Pierce IP lysis buffer (Pierce Inc.) in the presence of Proteinase and phosphatase inhibitor cocktail (Thermofisher) and sonicated for 20 seconds. Lysates were cleared by centrifugation at 12000 rpm in cold conditions on bench top centrifuge, and the supernatant was used for protein determination by BCA assay kit (Pierce Inc). Equivalent amounts of protein lysate were mixed with sodium dodecylsulfate (2×SDS) and boiled for 8 minutes. Samples were resolved by 4-12% gradient sodium dodecylsulfate-polyacrylamide gel electrophoresis (NOVEX; Invitrogen) and blotted onto nitrocellulose filters. Membranes were blocked for 1 hour in 0.1% Tween-20 and 5% bovine serum albumin. Primary antibodies for H3K9ac, histone H3, Lyn, ACLY and GAPDH were added to 5% BSA at concentrations provided by the vendor's instructions and incubated with membranes overnight at 4° C. before removing by washing. […]

HL-60 AML cells = experiment: MTT assay, growth of HL-60 AML cells; format: cell-based; details: within 72 hours
Method: HL-60 cells were treated with various concentrations of Bafetinib (Lyn kinase), BKM120 (PI3K) and BMS 303141 (ACLY) inhibitors in the presence of 10% RPMI media for 72 hours. The growth-inhibitory effect was examined using a […] assay (MTT; Sigma-Aldrich) as per the instructions of the manufactured kit. The experiment was performed in triplicate.

[2] = ACLY peptide binding on PIP specificity plates; details: PIP specificity plate, 20 pmols phosphoinositide per well, peptide 1.0 μg/ml
Method: ACLY peptides: Based on PIP2 binding motif analysis on ACLY using full length protein sequence, two PIP2 binding domains were predicted. The ACLY peptide-1 in the ATP-grasp domain sequence (peptide-1: […]; SEQ ID NO:15) and the ACLY peptide-2, in the CoA-binding domain sequence (peptide-2: […]; SEQ ID NO:5). N-terminally biotinylated peptides were synthesized (Genscript, Inc). ACLY-PIP specificity binding assay was performed using the N-terminally biotinylated peptides at 1.0 μg/ml concentration in 1% goat serum in Tris buffer saline (TB S) and the Cova PIP Specificity plate H-6300 (Echelon Biosciences) according to manufactures instructions. In brief, ACLY peptide-1 and peptide-2 at final concentration of 1.0 μg/ml in 100 μl volume were incubated for overnight at 4° C. After three washes with TBST buffer, the wells were incubated with 100 μl of HRP-conjugated Biotin antibody, followed by three washes. The bound peptides were detected with Super-Signal ELISA-Pico chemiluminescent substrate kit from ThermoFisher and reading the absorbance at 450 nm for 3-30 minutes.

Nc1cc(C(F)(F)F)c(-c2cc(N3CCOCC3)nc(N3CCOCC3)n2)cn1 [BKM120, Buparlisib]
phospho-ACLY bound to PIP2 versus DMSO (ACLY binding to PIP2): significant difference | levels of total PI/PIP/PIP2 compared to DMSO control (PI/PIP/PIP2): overall decrease | synthesis of Acetyl-CoA (Acetyl-CoA): significantly prevented | Histone H3 acetylation blocked (densitometric analysis) [1]: 97%

COc1ccc(-c2ccccc2)cc1NS(=O)(=O)c1cc(Cl)cc(Cl)c1O [BMS303141]
IC50 (HL-60 AML cells): 10 to 20 µM

Cc1ccc(NC(=O)c2ccc(CN3CC[C@H](N(C)C)C3)c(C(F)(F)F)c2)cc1Nc1nccc(-c2cncnc2)n1 [Bafetinib]
Histone H3 acetylation blocked (densitometric analysis) [1]: 90%

O=c1cc(N2CCOCC2)oc2c(-c3ccccc3)cccc12 [LY294002]
Histone H3 acetylation blocked (densitometric analysis) [1]: 60%

ALTRKLIKKADQKGV (Biotin-ALTRKLIKKADQKGV) [ACLY peptide-2]
binding to PI(4,5)P2 [2]: binds to PI(4,5)P2

Source: patent publication US20220218659A1, “PI3K/LYN-ACLY Signaling Inhibition” (Institute For Cancer Research d/b/a The Research Institute …, priority 2019, published 2022)
